According to ChEMBL document CHEMBL5126603, “Discovery of Clinical Candidate CHF-6366: A Novel Super-soft Dual Pharmacology Muscarinic Antagonist and β2 Agonist (MABA) for the Inhaled Treatment of Respiratory Diseases” (J Med Chem, 2022):

Assays:
[1] = Metabolic stability in rat lung S9 fraction assessed as half life at 1 uM measured after 0 to 60 mins in presence of NADPH by LC-MS/MS analysis; assay type: ADME, subcellular; conditions: time 0-60 min
[2] = Metabolic stability in human hepatocytes assessed as clearance at 1 uM measured per 10^6 cells and incubated upto 90 mins by LC-MS/MS analysis; assay type: ADME, cell-based, Hepatocyte; conditions: read-out: CLH
[3] = Metabolic stability in Dunkin-Hartley guinea pig hepatocytes assessed as clearance at 1 uM measured per 10^6 cells and incubated upto 90 mins by LC-MS/MS analysis; assay type: ADME, cell-based, Cavia porcellus, Hepatocyte; conditions: read-out: CLH
[4] = Metabolic stability in rat hepatocytes assessed as clearance at 1 uM measured per 10^6 cells and incubated upto 90 mins by LC-MS/MS analysis; assay type: ADME, cell-based, Hepatocyte; conditions: read-out: CLH
[5] = Metabolic stability in human liver microsomes assessed as clearance at 1 uM measured per mg protein incubated upto 60 mins in presence of NADPH by LC-MS/MS analysis; assay type: ADME, Microsome; conditions: read-out: CLH
[6] = Metabolic stability in rat liver microsomes assessed as clearance at 1 uM measured per mg protein incubated upto 60 mins in presence of NADPH by LC-MS/MS analysis; assay type: ADME, Microsome; conditions: read-out: CLH
[7] = Metabolic stability in human lung S9 fraction assessed as half life at 1 uM measured after 0 to 60 mins in presence of NADPH by LC-MS/MS analysis; assay type: ADME, subcellular; conditions: time 0-60 min
[8] = Metabolic stability in Dunkin-Hartley guinea pig lung S9 fraction assessed as half life at 1 uM measured after 0 to 60 mins in presence of NADPH by LC-MS/MS analysis; assay type: ADME, subcellular, Cavia porcellus; conditions: time 0-60 min
[9] = Efflux ratio of apparent permeability from basolateral to apical side over apical to basolateral side in human Caco-2 cells at 10 uM and measured after 2 hrs by LC-MS/MS analysis; assay type: ADME, cell-based
[10] = Metabolic stability in human plasma assessed as half life at 5 uM measured upto 120 mins by LC-MS/MS analysis; assay type: ADME, cell-free
[11] = Metabolic stability in rat plasma assessed as half life at 5 uM measured upto 120 mins by LC-MS/MS analysis; assay type: ADME, cell-free
[12] = Metabolic stability in Dunkin-Hartley guinea pig plasma assessed as half life at 5 uM measured upto 120 mins by LC-MS/MS analysis; assay type: ADME, cell-free, Cavia porcellus
[13] = Cmax in Dunkin-Hartley guinea pig lung at 500 nmol/Kg, IT(Intratracheal) measured after 72 hrs by LC/MS-MS analysis; assay type: ADME, tissue-based, Cavia porcellus; set-up: time 72 hrs, dose 500 nmol/kg, route it(Intratracheal); conditions: inhaled or intranasal
[14] = Tmax in Dunkin-Hartley guinea pig lung at 500 nmol/Kg, IT(Intratracheal) measured after 72 hrs by LC/MS-MS analysis; assay type: ADME, tissue-based, Cavia porcellus; conditions: inhaled or intranasal
[15] = AUCinfinity in Dunkin-Hartley guinea pig lung at 500 nmol/Kg, IT(Intratracheal) measured after 72 hrs by LC/MS-MS analysis; assay type: ADME, tissue-based, Cavia porcellus; set-up: dose 500 nmol/kg, time 72 hrs, route it(Intratracheal); conditions: in vivo, inhaled_or_intranasal
[16] = Half life in Dunkin-Hartley guinea pig lung at 500 nmol/Kg, IT(Intratracheal) measured after 72 hrs by LC/MS-MS analysis; assay type: ADME, tissue-based, Cavia porcellus; conditions: inhaled or intranasal
[17] = Tmax in Dunkin-Hartley guinea pig plasma at 500 nmol/Kg, IT(Intratracheal) measured after 72 hrs by LC/MS-MS analysis; assay type: ADME, cell-free, Cavia porcellus; conditions: inhaled or intranasal
[18] = Mutagenicity in Salmonella typhimurium assessed as induction of reverse mutation by Ames test; assay type: toxicity; conditions: salmonella enterica subsp. enterica serovar typhimurium
Trachea [19] = assay: In vivo bifunctional antagonist activity at muscarinic M3 receptor /agonist activity at beta-2 adrenoceptor in Dunkin-Hartley guinea pig trachea assessed as time duration for inhibition of carbachol induced contraction measured […]; assay type: functional, Cavia porcellus
Trachea [20] = assay: In vivo bifunctional antagonist activity at muscarinic M3 receptor /agonist activity at beta-2 adrenoceptor in Dunkin-Hartley guinea pig trachea assessed as inhibition of carbachol induced contraction; assay type: functional, tissue-based; conditions: Cavia porcellus
Trachea [21] = assay: (§1) Bifunctional antagonist activity at muscarinic M3 receptor /agonist activity at beta-2 adrenoceptor in Dunkin-Hartley guinea pig trachea assessed as inhibition of acetylcholine-induced bronchoconstriction at 0.1 nmol/Kg, IT(Intratracheal) measured after 15 mins by Konzett-Roessler methodology relative to control; assay type: functional; conditions: Cavia porcellus, 0.25 h
Trachea [22] = assay: as §1, with “0.3” for “0.1”, “5” for “15”; assay type: functional; conditions: Cavia porcellus
Trachea [23] = assay: as §1, with “0.3” for “0.1”; assay type: functional; conditions: Cavia porcellus, 0.25 h
Trachea [24] = assay: as §1, with “0.3” for “0.1”, “30” for “15”; assay type: functional; conditions: Cavia porcellus, 0.5 h
Trachea [25] = assay: as §1, with “1” for “0.1”, “5” for “15”; assay type: functional; conditions: Cavia porcellus
Trachea [26] = assay: as §1, with “1” for “0.1”; assay type: functional; conditions: Cavia porcellus, 0.25 h
Trachea [27] = assay: as §1, with “1” for “0.1”, “30” for “15”; assay type: functional; conditions: Cavia porcellus, 0.5 h
[28] = target: L-type calcium channel phenylalkylamine site (Homo sapiens, UniProt O60840+Q01668+Q13698+Q13936); assay: Inhibition of L-type calcium channel phenylalkylamine site (unknown origin) at 10 uM relative to control; assay type: protein assay
[29] = In vivo antagonist activity at muscarinic M3 receptor in Dunkin-Hartley guinea pig trachea assessed as inhibition of acetylcholine induced bronchoconstriction at 1 nmol/Kg, IT(Intratracheal) measured after 1 hr in presence of ICI-118551 by Konzett-Roessler methodology relative to control; assay type: functional; conditions: Cavia porcellus
[30] = (§2) In vivo antagonist activity at muscarinic M3 receptor in Dunkin-Hartley guinea pig trachea assessed as inhibition of acetylcholine induced bronchoconstriction at 1 nmol/Kg, IT(Intratracheal) measured after 24 hr in presence of ICI-118551 by Konzett-Roessler methodology relative to control; assay type: functional; conditions: Cavia porcellus
[31] = In vivo antagonist activity at muscarinic M3 receptor in Dunkin-Hartley guinea pig trachea assessed as inhibition of acetylcholine induced bronchoconstriction at 0.3 nmol/Kg, IT(Intratracheal) measured after 24 hr in presence of ICI-118551 by Konzett-Roessler methodology relative to control; assay type: functional; conditions: Cavia porcellus
[32] = In vivo agonist activity at beta-2 adrenoceptor in Dunkin-Hartley guinea pig trachea assessed as inhibition of histamine induced bronchoconstriction at 1 nmol/Kg, IT(Intratracheal) measured after 1 hr by Konzett-Roessler methodology relative to control; assay type: functional; conditions: Cavia porcellus
[33] = In vivo agonist activity at beta-2 adrenoceptor in Dunkin-Hartley guinea pig trachea assessed as inhibition of histamine induced bronchoconstriction at 1 nmol/Kg, IT(Intratracheal) measured after 24 hr by Konzett-Roessler methodology relative to control; assay type: functional; conditions: Cavia porcellus
[34] = In vivo agonist activity at beta-2 adrenoceptor in Dunkin-Hartley guinea pig trachea assessed as inhibition of histamine induced bronchoconstriction at 0.3 nmol/Kg, IT(Intratracheal) measured after 1 hr by Konzett-Roessler methodology relative to control; assay type: functional; conditions: Cavia porcellus
Trachea [35] = assay: as §1, with “acetylcholine induced” for “acetylcholine-induced”, “0.3” for “0.1”, “1 hr” for “15 mins”; assay type: functional; conditions: Cavia porcellus
Trachea [36] = assay: as §2, with “Bifunctional” for “In vivo”, “receptor /agonist activity at beta-2 adrenoceptor” for “receptor”, “hr” for “hr in presence of ICI-118551”; assay type: functional; conditions: Cavia porcellus

In the case of `Cn1nc(C(=O)OCCCCNC[C@H](O)c2ccc(O)c3[nH]c(=O)ccc23)cc1COc1cccc([C@@H](NC(=O)O[C@H]2CN3CCC2CC3)c2ccccc2)c1`, the half-life at 1 µM [1] is reported as 30 min, the hepatocyte CLint at 1 µM [2] is reported as 33 µL/min/1e6 cells and the hepatocyte CLint at 1 µM [3] is reported as 37 µL/min/1e6 cells. It also gave a hepatocyte CLint at 1 µM [4] of 32 µL/min/1e6 cells, a microsomal CLint at 1 µM [5] of 14 µL/min/mg and a microsomal CLint at 1 µM [6] of 37 µL/min/mg. For the same compound, the half-life at 1 µM [7] was > 120 min, the half-life at 1 µM [8] was > 120 min and the efflux ratio at 2 h, 10 µM [9] was 0.7. For the same compound, the half-life at 5 µM [10] was 20 min, the half-life at 5 µM [11] was < 5 min and the half-life at 5 µM [12] was 34 min. The Cmax [13] was 28400 ng/g, the Tmax [14] was 4.98 min and the AUC [15] was 725199 ng·h/g. The half-life [16] was 49.2 h, the Tmax [17] was 4.98 min and the Activity [18] was “Non-Toxic”. The Time (Trachea [19]) was >225 min, the IC50 (Trachea [20]) was 0.316 nM and the inhibition in vivo at 0.0001 µmol/kg (Trachea [21]) was 25.1%. The inhibition in vivo at 0.0003 µmol/kg (Trachea [22]) was 56.6%, the inhibition in vivo at 0.0003 µmol/kg (Trachea [23]) was 66.2% and the inhibition in vivo at 0.0003 µmol/kg (Trachea [24]) was 65.9%. For the same compound, the inhibition in vivo at 0.001 µmol/kg (Trachea [25]) was 90.1%, the inhibition in vivo at 0.001 µmol/kg (Trachea [26]) was 91.3% and the inhibition in vivo at 0.001 µmol/kg (Trachea [27]) was 90.8%. The inhibition at 10 µM [28] was > 65%, the inhibition in vivo at 0.001 µmol/kg [29] was 84.1% and the inhibition in vivo at 0.001 µmol/kg [30] was 47.2%. For the same compound, the inhibition in vivo at 0.0003 µmol/kg [31] was 30.1%, the inhibition in vivo at 0.001 µmol/kg [32] was 69.8% and the inhibition in vivo at 0.001 µmol/kg [33] was 50.1%. The inhibition in vivo at 0.0003 µmol/kg [34] was 31.9%, the inhibition in vivo at 0.0003 µmol/kg (Trachea [35]) was 58.4% and the inhibition in vivo at 0.001 µmol/kg (Trachea [36]) was 74.8%.
